Measurements taken from ChEMBL document CHEMBL1148096, “Ophirapstanol trisulfate, a new biologically active steroid sulfate from the deep water marine sponge Topsentia ophiraphidites” (J Nat Prod, 1994).

Target: GTPase HRas (Homo sapiens, UniProt P01112)
Assay: Inhibition of human recombinant p21RAS by GDPX assay

Sequence of GTPase HRas (P01112 whole entry): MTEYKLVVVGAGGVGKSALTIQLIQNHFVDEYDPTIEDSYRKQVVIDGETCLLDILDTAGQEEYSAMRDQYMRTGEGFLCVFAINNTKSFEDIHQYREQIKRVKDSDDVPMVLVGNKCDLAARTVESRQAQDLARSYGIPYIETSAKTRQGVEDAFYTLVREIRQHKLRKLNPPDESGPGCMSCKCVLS

IC50: 2.55 µM
SMILES: CC(C)C(C)(C)C(C)CC[C@@H](C)[C@H]1CC[C@H]2[C@@H]3C[C@H](OS(=O)(=O)O)C4C[C@H](OS(=O)(=O)O)[C@@H](OS(=O)(=O)O)C[C@]4(C)[C@H]3CC[C@]12C (stereo partly specified) [OPHIRAPSTANOL TRISULFATE]
